Patent US7807781B2, “Inhibitors of serine protease activity and their use in methods and compositions for treatment of viral infections” (The Regents of the University of Colorado, priority 1999, dated 2010)

How the values were obtained:
[1] = system: HIV-1 production in U1 cells; assay: U1 monocytic cell assay, TNF-induced HIV-1 p24 antigen; format: cell-based; settings: for TNF-induced p24 antigen: 3.0 ng/ml TNF
NF-κB = assay: IL-18-induced NF-κB expression; format: cell-based; settings: compared with IL-18 alone (lane 4)

AAT: Alpha-1-antitrypsin purified from the blood of healthy volunteers to single-band homogeneity
TNF-induced p24 antigen ([1]; AAT 0.1 mg/ml): 16,405±8,449 pg/ml
TNF-induced p24 antigen ([1]; AAT 0.5 mg/ml): 16,863±7,718 pg/ml
TNF-induced p24 antigen ([1]; AAT 1 mg/ml): 15,328±7,129 pg/ml
TNF-induced p24 antigen ([1]; AAT 2 mg/ml): 12,566±4,981 pg/ml
TNF-induced p24 antigen ([1]; AAT 3 mg/ml): 9,341±2,730 pg/ml
TNF-induced p24 antigen ([1]; AAT 4 mg/ml): 9,091±3,436 pg/ml
TNF-induced p24 antigen ([1]; AAT 5 mg/ml): 6,868±2,737 pg/ml
mean percent reduction in TNF-induced p24 antigen ([1]; AAT 3 mg/ml): 56%
mean percent reduction in TNF-induced p24 antigen ([1]; AAT 4 mg/ml): 60%
mean percent reduction in TNF-induced p24 antigen ([1]; AAT 5 mg/ml): 73%
IL-18-induced NF-κB expression (NF-κB): reduced
